Activity calls are given as the source filed them. The calls are words filed in the database; no cut-off is given here.
How the values were obtained:
[1] = target: Sodium-dependent dopamine transporter (Homo sapiens, UniProt Q01959); experiment: Displacement of [3H]WIN-35,428 from human DAT expressed in mouse N2A cells after 15 mins by liquid scintillation counting; format: cell-based
[2] = target: Sodium-dependent dopamine transporter (Rattus norvegicus) (UniProt P23977); experiment: Binding affinity to DAT in rat striatal membrane at 10 nM incubated for 1.5 hrs prior to irradiation measured after 5 mins by photoaffinity labeling-based autoradiographic analysis in presence of (-)-cocaine; format: cell membranes; details: Striatum, tested as the 125I-labelled form
Sodium-dependent dopamine transporter (Rattus norvegicus), sequence (P23977 whole entry): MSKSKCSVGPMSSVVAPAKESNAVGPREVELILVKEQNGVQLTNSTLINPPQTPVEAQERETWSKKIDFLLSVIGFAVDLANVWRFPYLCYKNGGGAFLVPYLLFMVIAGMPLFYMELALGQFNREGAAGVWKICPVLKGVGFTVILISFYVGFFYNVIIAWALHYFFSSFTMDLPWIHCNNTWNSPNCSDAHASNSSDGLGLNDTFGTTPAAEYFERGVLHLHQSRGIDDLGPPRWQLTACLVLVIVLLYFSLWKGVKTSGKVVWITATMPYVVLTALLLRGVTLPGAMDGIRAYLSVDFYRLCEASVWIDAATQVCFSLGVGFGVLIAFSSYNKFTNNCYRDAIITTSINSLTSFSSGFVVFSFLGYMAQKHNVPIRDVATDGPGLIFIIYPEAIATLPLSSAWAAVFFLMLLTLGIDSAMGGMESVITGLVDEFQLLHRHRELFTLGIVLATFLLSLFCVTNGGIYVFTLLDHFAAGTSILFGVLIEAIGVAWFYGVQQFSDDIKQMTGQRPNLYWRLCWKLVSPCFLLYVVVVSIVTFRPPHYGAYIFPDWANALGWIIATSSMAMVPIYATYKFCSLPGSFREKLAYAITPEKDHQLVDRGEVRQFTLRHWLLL

[3] = target: Sodium-dependent dopamine transporter (Rattus norvegicus) (UniProt P23977); experiment: Binding affinity to DAT in rat striatal membrane at 10 nM incubated for 1.5 hrs prior to irradiation measured after 5 mins by photoaffinity labeling-based autoradiographic analysis; format: cell membranes; details: Striatum, tested as the 125I-labelled form
[4] = target: Sodium-dependent dopamine transporter (Rattus norvegicus) (UniProt P23977); experiment: Binding affinity to DAT in rat striatal membrane at 10 nM incubated for 1.5 hrs prior to irradiation measured after 5 mins by photoaffinity labeling-based autoradiographic analysis in presence of D-methylphenidate; format: cell membranes; details: Striatum, tested as the 125I-labelled form

Sodium-dependent dopamine transporter, sequence (Q01959 whole entry): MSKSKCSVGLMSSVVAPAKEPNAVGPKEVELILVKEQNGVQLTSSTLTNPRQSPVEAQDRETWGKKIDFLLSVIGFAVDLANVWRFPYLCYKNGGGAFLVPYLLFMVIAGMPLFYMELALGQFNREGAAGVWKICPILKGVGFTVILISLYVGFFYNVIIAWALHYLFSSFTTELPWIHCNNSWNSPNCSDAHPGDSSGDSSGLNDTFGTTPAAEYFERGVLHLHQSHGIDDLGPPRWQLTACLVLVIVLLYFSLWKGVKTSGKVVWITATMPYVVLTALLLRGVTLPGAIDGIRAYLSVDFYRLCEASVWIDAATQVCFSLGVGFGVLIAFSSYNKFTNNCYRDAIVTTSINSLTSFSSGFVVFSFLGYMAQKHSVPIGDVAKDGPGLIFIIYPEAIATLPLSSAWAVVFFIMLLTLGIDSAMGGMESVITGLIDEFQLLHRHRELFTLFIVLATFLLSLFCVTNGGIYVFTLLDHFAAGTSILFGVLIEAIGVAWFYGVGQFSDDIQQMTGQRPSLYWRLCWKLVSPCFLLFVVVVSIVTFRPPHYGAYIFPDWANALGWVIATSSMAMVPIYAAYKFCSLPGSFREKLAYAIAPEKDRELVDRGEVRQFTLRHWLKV

Row | SMILES | Ki [1] | Activity [2] | Activity [3] | Activity [4]
1 | COC(=O)[C@H](c1ccc(Cl)c(Cl)c1)[C@H]1CCCCN1 (racemic) | 1.8 nM |  |  | 
2 | COC(=O)[C@H](c1ccc(N)cc1)[C@H]1CCCCN1 (racemic) | 6.3 nM |  |  | 
3 | COC(=O)[C@H](c1ccc([N+](=O)[O-])cc1)[C@H]1CCCCN1 (racemic) | 77 nM |  |  | 
4 | COC(=O)[C@H](c1ccc(N=[N+]=[N-])c(I)c1)[C@H]1CCCCN1 (racemic) | 4 nM | inactive | Active | inactive
5 | COC(=O)[C@H](c1ccc(N)c(I)c1)[C@H]1CCCCN1 (racemic) | 9.1 nM |  |  | 
6 | COC(=O)[C@H](c1ccc(N=[N+]=[N-])cc1)[C@H]1CCCCN1 (racemic) | 35 nM |  |  | 
